Measured values reported in ChEMBL document CHEMBL1136926 (J Med Chem, 2009).
Activity calls are given as the source filed them. The rule behind the calls is not given here. Positions of bridges follow the written chain, without caps; N, C: chain ends. Non-standard residues stand in square brackets, D forms with d. Residues, ends and D or L forms follow the SMILES beside them. dPen = CC(C)(S)[C@@H](N)C(=O)O; Orn = NCCC[C@H](N)C(=O)O

Key:
[1] = target: T1, Urotensin-2 receptor (Rattus norvegicus) (UniProt P49684); assay: Antagonist activity at UT2 receptor in Albino rat aorta assessed as inhibition of […] aortic contraction; type: functional, tissue-based
T1 sequence (whole entry): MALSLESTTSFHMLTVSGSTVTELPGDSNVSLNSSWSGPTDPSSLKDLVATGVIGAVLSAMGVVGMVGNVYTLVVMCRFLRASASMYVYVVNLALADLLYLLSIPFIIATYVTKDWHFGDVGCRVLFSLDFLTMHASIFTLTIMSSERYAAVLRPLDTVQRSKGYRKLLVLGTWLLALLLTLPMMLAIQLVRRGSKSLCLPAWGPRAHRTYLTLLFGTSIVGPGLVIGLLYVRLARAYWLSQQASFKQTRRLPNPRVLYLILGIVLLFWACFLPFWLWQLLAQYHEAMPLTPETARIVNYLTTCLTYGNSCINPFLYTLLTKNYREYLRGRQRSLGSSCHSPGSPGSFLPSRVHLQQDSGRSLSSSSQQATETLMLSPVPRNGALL

[2] = target: T1, Urotensin-2 receptor (Rattus norvegicus); conditions: Albino, Aorta
Description: Agonist activity at UT2 receptor in Albino rat aorta assessed as induction of aortic contraction

CC(C)[C@H](NC(=O)[C@@H]1CSSC(C)(C)[C@@H](NC(=O)[C@@H](N)CC(=O)O)C(=O)N[C@@H](Cc2ccccc2)C(=O)N[C@H](Cc2c[nH]c3ccccc23)C(=O)N[C@@H](CCCN)C(=O)N[C@@H](Cc2ccc(O)cc2)C(=O)N1)C(=O)O (H-D[dPen]F[dW][Orn]YCV-OH; disulfide 2-7) was tested, and the pKb [1] was 8.3 and the pEC50 [2] was “inactive”.
